Measurements reported in US20150191606A1, “USE OF VANADIUM-CONTAINING PARTICLES AS A BIOCIDE” (priority 2012, published 2015).

B1: wild-type V-CPO from C. inaequalis: wild-type vanadium chloroperoxidase from C. inaequalis (protein, UniProt P49053 1-609, looked up)
Vanadium chloroperoxidase: MGSVTPIPLPKIDEPEEYNTNYILFWNHVGLELNRVTHTVGGPLTGPPLSARALGMLHLAIHDAYFSICPPTDFTTFLSPDTENAAYRLPSPNGANDARQAVAGAALKMLSSLYMKPVEQPNPNPGANISDNAYAQLGLVLDRSVLEAPGGVDRESASFMFGEDVADVFFALLNDPRGASQEGYHPTPGRYKFDDEPTHPVVLIPVDPNNPNGPKMPFRQYHAPFYGKTTKRFATQSEHFLADPPGLRSNADETAEYDDAVRVAIAMGGAQALNSTKRSPWQTAQGLYWAYDGSNLIGTPPRFYNQIVRRIAVTYKKEEDLANSEVNNADFARLFALVDVACTDAGIFSWKEKWEFEFWRPLSGVRDDGRPDHGDPFWLTLGAPATNTNDIPFKPPFPAYPSGHATFGGAVFQMVRRYYNGRVGTWKDDEPDNIAIDMMISEELNGVNRDLRQPYDPTAPIEDQPGIVRTRIVRHFDSAWELMFENAISRIFLGVHWRFDAAAARDILIPTTTKDVYAVDNNGATVFQNVEDIRYTTRGTREDPEGLFPIGGVPLGIEIADEIFNNGLKPTPPEIQPMPQETPVQKPVGQQPVKGMWEEEQAPVVKEAP

Experiments:
[1] = test system: E. coli; experiment: E. coli growth inhibition test, OD at 595 nm; type: cell-based
Experimental: Overnight cultures of E. coli cells (OneShot® Chemically Competent E. Coli, Cat. No. C4040-10, Invitrogen) in LB media (Cat. No. X968.2, Carl-Roth, Germany) were initially done. For the growth inhibition tests cultures were prepared by initially dispersing VO(acac)2 (Sigma Aldrich, 0.08 mg/ml) in 5 ml LB medium to which KBr (1 mM) and H2O2 (100 μM) were added. To start the culture 20 μl of the overnight E. coli stock was added. The cultures were kept at 37° C. with agitation, and the OD was measured at 595 nm at different time points until 180 min (beginning of stationary phase). As controls either only VO(acac)2 or only H2O2/Br^− was added to the cultures in the concentrations given above. For comparative purposes the same assay was done with V2O5 nanowires (Example 1) in the same concentration range as VO(acac)2 (0.08 mg/ml).

[2] = test system: E. coli; experiment: Biocidal rosine paint formulations on steel plates, DAPI fluorescence, qualitative; type: cell-based; conditions: Br- 1 mM, H2O2, 3 days at 37° C.
Experimental: A self-polishing rosine formulation was prepared as follows: 22 g of Rosine/Kolophonium (Aldrich) was mixed with 8 g Xylene (Aldrich) and stirred 45 min until well dissolved. Under continuous stirring 0.4 g Thixatrol Max (Elementis) and 1.5 g Bentone SD 1 (Elementis) were added and stirred for at least 5 min. Under continuous stirring 10 g zinc oxide (Aldrich) [optional], 9 g iron oxide red (Aldrich) [optional], 15 g talcum (Aldrich), ×g of biocide and 10-×g of barium sulfate as a filler were added, and the whole mixture was dispersed for at least 15 min at 600-900 rpm. Under stirring 8 g Xylene (Aldrich), 6.7 g Hordaflex LC 50 (Leuna-Tenside) and 8 g petrol 140/180 (Merck) were added.
Steel plates of 2×2 cm were painted directly with no previous treatment with said rosine formulation by brushing and drying for 3 days at room temperature. No surface characterization was performed. […]
After incubation the substrates were gently washed with LB media and PBS buffer. Bacterial cells were stained with […] (DAPI, 1 mg/ml), and fluorescence analysis was performed using an Olympus AHBT3 light microscope together with an AH3-RFC reflected light fluorescence attachment. The presence of bacterial colonies was easily detected by the presence of bright blue “dots” or “clusters”. […]

[3] = molecular target: V-CPO from C. inaequalis (Curvularia inaequalis, UniProt P49053, L241V/P395D/T343A); conditions: cited from earlier work
V-CPO from C. inaequalis, sequence (P49053 whole entry L241V/T343A/P395D): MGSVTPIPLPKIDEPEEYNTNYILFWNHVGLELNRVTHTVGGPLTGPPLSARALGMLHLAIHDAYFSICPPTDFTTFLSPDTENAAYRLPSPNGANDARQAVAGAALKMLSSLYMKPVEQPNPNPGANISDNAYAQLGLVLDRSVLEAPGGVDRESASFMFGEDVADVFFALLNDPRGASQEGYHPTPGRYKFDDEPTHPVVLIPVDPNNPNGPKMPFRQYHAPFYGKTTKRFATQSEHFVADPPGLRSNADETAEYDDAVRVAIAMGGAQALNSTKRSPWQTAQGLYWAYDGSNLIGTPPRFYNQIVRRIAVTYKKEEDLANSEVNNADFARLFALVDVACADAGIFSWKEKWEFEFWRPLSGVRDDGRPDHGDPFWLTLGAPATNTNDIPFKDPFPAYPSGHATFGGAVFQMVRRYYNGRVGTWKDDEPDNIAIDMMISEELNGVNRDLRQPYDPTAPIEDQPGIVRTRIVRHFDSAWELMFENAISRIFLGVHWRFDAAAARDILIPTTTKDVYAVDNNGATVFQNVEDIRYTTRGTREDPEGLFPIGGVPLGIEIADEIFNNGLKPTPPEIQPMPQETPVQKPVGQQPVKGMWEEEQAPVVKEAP

Molecule | Decay in E. coli growth (%) ([1]; 0.08 mg/ml, KBr 1 mM, H2O2 100 μM as named in sample, 180 min) | antimicrobial activity by itself ([1]; without H2O2/Br-) | adherence of E. coli to painted surface ([2]; 0.5% biocide in dry film) | adherence of E. coli to painted surface ([2]; 10% biocide in dry film) | optimal pH [3]
Vanadyl acetylacetonate [VO(acac)2] | 6 | no relevant antimicrobial activity | inhibited the adhesion of E. coli | inhibited the adhesion of E. coli | 
B1 |  |  |  |  | 5.5
